According to patent US20260209217A1, “CRYSTALLINE FORMS OF (S)-5-((3-(4-(4-FLUOROPHENYL)-1H-IMIDAZOL-2-YL)CHROMAN-6-YL)OXY)-3,4-DIHYDRO-1,8-NAPHTHYRIDIN-2(1H)-ONE” (Jazz Pharmaceuticals Ireland Limited, priority 2022, published 2026):
Entries after “also recorded” stand apart in the source; their conditions may differ.

Experiments:
Type in all cases: physicochemical
[1] = Dynamic vapor sorption (DVS) isotherm analysis
Experimental: Approximately 10 mg of material was analyzed using an automated dynamic vapor sorption analyzer (Intrinsic/Advantage) at 25° C. Method 1 for anhydrate undergo humidity cycle of 40-0-95-0-40% RH with stage step of 10% RH during which mass change was recorded. Method 2 for hydrate undergo humidity cycle of 40-95-0-95-40% RH with stage step of 10% RH during which mass change we recorded. Equilibrium set up was 0.002 dm/dt (%/min). Minimum dm/dt stability during in 60 min and maximum dm/dt stability duration is 360 min.

[2] = Stability of crystalline forms as evidenced by DSC and TGA thermograms; details: relative to the other crystalline forms
Experimental: Approximately 1-2 mg of material was weighed into an aluminum DSC pan with a pin hold. The sample pan then placed on Differential Scanning Calorimetry (TA Discovery 2500) with protected nitrogen flow rate of 50 mL/min. The sample was heated at rate of 10° C./min from 30° C. to 250° C. during which heat flow was recorded.
Approximately 2 mg of material was weighed into an open aluminum pan and loaded into a simultaneous thermogravimetric/differential thermal analyzer (TG Discovery 5500) and held at room temperature. Nitrogen flow rate for balance was 10 mL/min and nitrogen flow rate for sample was 25 mL/min. The sample was then heated at a rate of 10° C./min from 30° C. to 300° C. during which time the change in sample weight was recorded.

[3] = Solubility / in vitro dissolution in biorelevant media
Experimental: In vitro dissolution profiles were analyzed for Form A and Form F. In vitro drug dissolution and release testing can provide insight into a drug's in vivo performance such as bioavailability.
Because Forms A and F were selected for further pharmaceutical development, dissolution tests were performed on these forms. The tests were performed at different pH and in biorelevant media: hydrochloric acid (HCl), fasted state simulated gastric fluid (FaSSGF), fasted state simulated intestinal fluid (FaSSIF), and fed state simulated intestinal fluid (FeSSIF) (75 rpm, 900 mL). Three 10 mg and 50 mg capsules were analyzed as shown below in Table 18. The capsules include those including only Form A, 90% Form A spiked with 10% of Form F, and Form F. The results are shown in FIGS. 14A-14C (10 mg capsules) and FIGS. 15A-15C (50 mg capsules).

[4] = DVS Cycle 1, target 40.0 % P/Po, 24.8° C.
[5] = DVS Cycle 1, target 50.0 % P/Po, 24.8° C.
[6] = DVS Cycle 1, target 60.0 % P/Po, 24.8° C.
[7] = DVS Cycle 1, target 70.0 % P/Po, 24.8° C.
[8] = DVS Cycle 1, target 80.0 % P/Po, 24.8° C.
[9] = DVS Cycle 1, target 90.0 % P/Po, 24.8° C.
[10] = DVS Cycle 1, target 95.0 % P/Po, 24.8° C.
[11] = DVS Cycle 2, target 40.0 % P/Po, 24.8° C.
[12] = DVS Cycle 2, target 50.0 % P/Po, 24.8° C.
[13] = DVS Cycle 2, target 60.0 % P/Po, 24.8° C.
[14] = DVS Cycle 2, target 70.0 % P/Po, 24.8° C.
[15] = DVS Cycle 2, target 80.0 % P/Po, 24.8° C.
[16] = DVS Cycle 2, target 90.0 % P/Po, 24.8° C.
[17] = DVS Cycle 2, target 95.0 % P/Po, 24.8° C.
[18] = DVS Cycle 1, target 0.0 % P/Po, 24.9° C.
[19] = DVS Cycle 1, target 10.0 % P/Po, 24.9° C.
[20] = DVS Cycle 1, target 20.0 % P/Po, 24.9° C.
[21] = DVS Cycle 1, target 30.0 % P/Po, 24.9° C.
[22] = DVS Cycle 1, target 40.0 % P/Po, 24.9° C.
[23] = DVS Cycle 2, target 0.0 % P/Po, 24.9° C.
[24] = DVS Cycle 2, target 10.0 % P/Po, 24.9° C.
[25] = DVS Cycle 2, target 20.0 % P/Po, 24.9° C.
[26] = DVS Cycle 2, target 30.0 % P/Po, 24.9° C.
[27] = DVS Cycle 2, target 40.0 % P/Po, 24.9° C.

O=C1CCc2c(Oc3ccc4c(c3)C[C@@H](c3nc(-c5ccc(F)cc5)c[nH]3)CO4)ccnc2N1 [Form A, (S)-5-((3-(4-(4-fluorophenyl)-1H-imidazol-2-yl)chroman-6-yl)oxy)-3,4-dihydro-1,8-naphthyridin-2(1H)-one]
Change In Mass (%) - ref, Desorption ([1]; DVS Cycle 1, target 0.0 % P/Po, 24.8° C.): 0.002%
Change In Mass (%) - ref, Desorption ([1]; DVS Cycle 1, target 10.0 % P/Po, 24.8° C.): 0.350%
Change In Mass (%) - ref, Desorption ([1]; DVS Cycle 1, target 20.0 % P/Po, 24.8° C.): 0.941%
Change In Mass (%) - ref, Desorption ([1]; DVS Cycle 1, target 30.0 % P/Po, 24.8° C.): 3.649%
Change In Mass (%) - ref, Desorption [1, 4]: 4.700%
Change In Mass (%) - ref, Hysteresis [1, 4]: 0.077%
Change In Mass (%) - ref, Sorption [1, 4]: 4.623%
Change In Mass (%) - ref, Desorption [1, 5]: 5.395%
Change In Mass (%) - ref, Hysteresis [1, 5]: 0.283%
Change In Mass (%) - ref, Sorption [1, 5]: 5.112%
Change In Mass (%) - ref, Desorption [1, 6]: 5.814%
Change In Mass (%) - ref, Hysteresis [1, 6]: 0.339%
Change In Mass (%) - ref, Sorption [1, 6]: 5.475%
Change In Mass (%) - ref, Desorption [1, 7]: 6.213%
Change In Mass (%) - ref, Hysteresis [1, 7]: 0.368%
Change In Mass (%) - ref, Sorption [1, 7]: 5.845%
Change In Mass (%) - ref, Desorption [1, 8]: 6.535%
Change In Mass (%) - ref, Hysteresis [1, 8]: 0.341%
Change In Mass (%) - ref, Sorption [1, 8]: 6.194%
Change In Mass (%) - ref, Desorption [1, 9]: 6.824%
Change In Mass (%) - ref, Hysteresis [1, 9]: 0.230%
Change In Mass (%) - ref, Sorption [1, 9]: 6.594%
Change In Mass (%) - ref, Desorption [1, 10]: 6.838%
Change In Mass (%) - ref, Sorption [1, 10]: 6.838%
Change In Mass (%) - ref, Sorption ([1]; DVS Cycle 2, target 0.0 % P/Po, 24.8° C.): 0.002%
Change In Mass (%) - ref, Sorption ([1]; DVS Cycle 2, target 10.0 % P/Po, 24.8° C.): 0.312%
Change In Mass (%) - ref, Sorption ([1]; DVS Cycle 2, target 20.0 % P/Po, 24.8° C.): 0.853%
Change In Mass (%) - ref, Sorption ([1]; DVS Cycle 2, target 30.0 % P/Po, 24.8° C.): 3.253%
Change In Mass (%) - ref, Desorption [1, 11]: 4.601%
Change In Mass (%) - ref, Hysteresis [1, 11]: 0.375%
Change In Mass (%) - ref, Sorption [1, 11]: 4.225%
Change In Mass (%) - ref, Desorption [1, 12]: 5.295%
Change In Mass (%) - ref, Hysteresis [1, 12]: 0.495%
Change In Mass (%) - ref, Sorption [1, 12]: 4.800%
Change In Mass (%) - ref, Desorption [1, 13]: 5.715%
Change In Mass (%) - ref, Hysteresis [1, 13]: 0.466%
Change In Mass (%) - ref, Sorption [1, 13]: 5.248%
Change In Mass (%) - ref, Desorption [1, 14]: 6.129%
Change In Mass (%) - ref, Hysteresis [1, 14]: 0.423%
Change In Mass (%) - ref, Sorption [1, 14]: 5.706%
Change In Mass (%) - ref, Desorption [1, 15]: 6.446%
Change In Mass (%) - ref, Hysteresis [1, 15]: 0.324%
Change In Mass (%) - ref, Sorption [1, 15]: 6.122%
Change In Mass (%) - ref, Desorption [1, 16]: 6.737%
Change In Mass (%) - ref, Hysteresis [1, 16]: 0.201%
Change In Mass (%) - ref, Sorption [1, 16]: 6.536%
Change In Mass (%) - ref, Desorption [1, 17]: 6.745%
Change In Mass (%) - ref, Sorption [1, 17]: 6.745%
stability of the crystalline form [2]: high degree of crystallinity and stability; also recorded: increased stability

O=C1CCc2c(Oc3ccc4c(c3)C[C@@H](c3nc(-c5ccc(F)cc5)c[nH]3)CO4)ccnc2N1 [Form F, (S)-5-((3-(4-(4-fluorophenyl)-1H-imidazol-2-yl)chroman-6-yl)oxy)-3,4-dihydro-1,8-naphthyridin-2(1H)-one]
Change In Mass (%) - ref, Desorption [1, 18]: 0.006%
Change In Mass (%) - ref, Sorption [1, 18]: 0.006%
Change In Mass (%) - ref, Desorption [1, 19]: 0.301%
Change In Mass (%) - ref, Hysteresis [1, 19]: 0.128%
Change In Mass (%) - ref, Sorption [1, 19]: 0.173%
Change In Mass (%) - ref, Desorption [1, 20]: 0.458%
Change In Mass (%) - ref, Hysteresis [1, 20]: 0.134%
Change In Mass (%) - ref, Sorption [1, 20]: 0.324%
Change In Mass (%) - ref, Desorption [1, 21]: 0.566%
Change In Mass (%) - ref, Hysteresis [1, 21]: 0.111%
Change In Mass (%) - ref, Sorption [1, 21]: 0.455%
Change In Mass (%) - ref, Desorption [1, 22]: 0.649%
Change In Mass (%) - ref, Hysteresis [1, 22]: 0.075%
Change In Mass (%) - ref, Sorption [1, 22]: 0.574%
Change In Mass (%) - ref, Sorption ([1]; DVS Cycle 1, target 50.0 % P/Po, 24.9° C.): 0.690%
Change In Mass (%) - ref, Sorption ([1]; DVS Cycle 1, target 60.0 % P/Po, 24.9° C.): 0.813%
Change In Mass (%) - ref, Sorption ([1]; DVS Cycle 1, target 70.0 % P/Po, 24.9° C.): 0.964%
Change In Mass (%) - ref, Sorption ([1]; DVS Cycle 1, target 80.0 % P/Po, 24.9° C.): 1.160%
Change In Mass (%) - ref, Sorption ([1]; DVS Cycle 1, target 90.0 % P/Po, 24.9° C.): 1.601%
Change In Mass (%) - ref, Sorption ([1]; DVS Cycle 1, target 95.0 % P/Po, 24.9° C.): 1.911%
Change In Mass (%) - ref, Desorption [1, 23]: 0.156%
Change In Mass (%) - ref, Sorption [1, 23]: 0.156%
Change In Mass (%) - ref, Desorption [1, 24]: 0.718%
Change In Mass (%) - ref, Hysteresis [1, 24]: 0.355%
Change In Mass (%) - ref, Sorption [1, 24]: 0.363%
Change In Mass (%) - ref, Desorption [1, 25]: 1.060%
Change In Mass (%) - ref, Hysteresis [1, 25]: 0.495%
Change In Mass (%) - ref, Sorption [1, 25]: 0.565%
Change In Mass (%) - ref, Desorption [1, 26]: 1.291%
Change In Mass (%) - ref, Hysteresis [1, 26]: 0.539%
Change In Mass (%) - ref, Sorption [1, 26]: 0.752%
Change In Mass (%) - ref, Desorption [1, 27]: 1.459%
Change In Mass (%) - ref, Hysteresis [1, 27]: 0.532%
Change In Mass (%) - ref, Sorption [1, 27]: 0.927%
Change In Mass (%) - ref, Desorption ([1]; DVS Cycle 2, target 50.0 % P/Po, 24.9° C.): 1.595%
Change In Mass (%) - ref, Desorption ([1]; DVS Cycle 2, target 60.0 % P/Po, 24.9° C.): 1.711%
Change In Mass (%) - ref, Desorption ([1]; DVS Cycle 2, target 70.0 % P/Po, 24.9° C.): 1.813%
Change In Mass (%) - ref, Desorption ([1]; DVS Cycle 2, target 80.0 % P/Po, 24.9° C.): 1.901%
Change In Mass (%) - ref, Desorption ([1]; DVS Cycle 2, target 90.0 % P/Po, 24.9° C.): 1.964%
Change In Mass (%) - ref, Desorption ([1]; DVS Cycle 2, target 95.0 % P/Po, 24.9° C.): 1.911%
stability of the crystalline form [2]: high degree of crystallinity and stability; also recorded: increased stability

O=C1CCc2c(Oc3ccc4c(c3)C[C@@H](c3nc(-c5ccc(F)cc5)c[nH]3)CO4)ccnc2N1 [Compound I, (S)-5-((3-(4-(4-fluorophenyl)-1H-imidazol-2-yl)chroman-6-yl)oxy)-3,4-dihydro-1,8-naphthyridin-2(1H)-one]
solubility [3]: poorly soluble
